Assay results from PubChem BioAssay (NCI).
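Values below derive from 48-hour exposures of cells grown in 96-well plates, with endpoints linearly interpolated between the two concentrations bracketing the appropriate inhibition level. GI50 = concentration required for 50% inhibition of growth. Definition used: TGI = concentration required for complete inhibition of growth.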

Key:
Assay in all cases: NCI-60 cell line screen, 48 h
[1] = tested on: 786-0 renal
[2] = tested on: A498 renal
[3] = tested on: A549 NSCLC
[4] = tested on: ACHN renal
[5] = tested on: BT-549 breast
[6] = tested on: CCRF-CEM leukemia
[7] = tested on: COLO 205 colon
[8] = tested on: DU-145 prostate
[9] = tested on: EKVX NSCLC
[10] = tested on: HCC-2998 colon
[11] = tested on: HCT-116 colon
[12] = tested on: HCT-15 colon
[13] = tested on: HL-60(TB) leukemia
[14] = tested on: HOP-62 NSCLC
[15] = tested on: HOP-92 NSCLC
[16] = tested on: HS 578T breast
[17] = tested on: HT29 colon
[18] = tested on: IGROV1 ovarian
[19] = tested on: K-562 leukemia
[20] = tested on: KM12 colon
[21] = tested on: LOX IMVI melanoma
[22] = tested on: M14 melanoma
[23] = tested on: MALME-3M melanoma
[24] = tested on: MCF7 breast
[25] = tested on: MDA-MB-231 breast
[26] = tested on: MDA-MB-435
[27] = tested on: MOLT-4 leukemia
[28] = tested on: NCI-H226 lung
[29] = tested on: NCI-H23 lung
[30] = tested on: NCI-H460 lung
[31] = tested on: NCI-H522 lung
[32] = tested on: NCI/ADR-RES ovarian
[33] = tested on: OVCAR-3 ovarian
[34] = tested on: OVCAR-4 ovarian
[35] = tested on: OVCAR-5 ovarian
[36] = tested on: OVCAR-8 ovarian
[37] = tested on: PC-3 prostate
[38] = tested on: RPMI-8226 leukemia
[39] = tested on: RXF 393 renal
[40] = tested on: SF-268 CNS
[41] = tested on: SF-295 CNS
[42] = tested on: SF-539 CNS
[43] = tested on: SK-MEL-2 melanoma
[44] = tested on: SK-MEL-28 melanoma
[45] = tested on: SK-MEL-5 melanoma
[46] = tested on: SK-OV-3 ovarian
[47] = tested on: SN12C renal
[48] = tested on: SNB-19 CNS
[49] = tested on: SNB-75 CNS
[50] = tested on: SR leukemia
[51] = tested on: SW-620 colon
[52] = tested on: T-47D breast
[53] = tested on: U251 CNS
[54] = tested on: UACC-257 melanoma
[55] = tested on: UACC-62 melanoma
[56] = tested on: UO-31 renal

SMILES: C=C1C(=O)O[C@H]2[C@H]1CC/C(CNS(=O)(=O)c1ccc3ccccc3c1)=C\CC[C@@]1(C)O[C@@H]21
- GI50 [1]: 1.62 µM
- TGI [1]: 3.22 µM
- GI50 [2]: 10.2 µM
- TGI [2]: 21.8 µM
- GI50 [3]: 10.9 µM
- TGI [3]: 25 µM
- GI50 [4]: 0.514 µM
- TGI [4]: 1.91 µM
- GI50 [5]: 1.76 µM
- TGI [5]: 4.02 µM
- GI50 [6]: 0.399 µM
- TGI [6]: 2.31 µM
- GI50 [7]: 1.16 µM
- TGI [7]: 2.69 µM
- GI50 [8]: 1.34 µM
- TGI [8]: 3.56 µM
- GI50 [9]: 2.48 µM
- TGI [9]: 11.1 µM
- GI50 [10]: 3.68 µM
- TGI [10]: 11.3 µM
- GI50 [11]: 0.879 µM
- TGI [11]: 2.12 µM
- GI50 [12]: 1.27 µM
- TGI [12]: 2.77 µM
- GI50 [13]: 1.63 µM
- TGI [13]: 3.96 µM
- GI50 [14]: 12.5 µM
- TGI [14]: 29.6 µM
- GI50 [15]: 1.89 µM
- TGI [15]: 6.34 µM
- GI50 [16]: 4.69 µM
- TGI [16]: 29.1 µM
- GI50 [17]: 1.94 µM
- TGI [17]: 3.91 µM
- GI50 [18]: 2.87 µM
- TGI [18]: 8.2 µM
- GI50 [19]: 0.691 µM
- TGI [19]: 4.46 µM
- GI50 [20]: 10.8 µM
- TGI [20]: 23.8 µM
- GI50 [21]: 1.43 µM
- TGI [21]: 2.77 µM
- GI50 [22]: 1.57 µM
- TGI [22]: 3.49 µM
- GI50 [23]: 1.94 µM
- TGI [23]: 4.59 µM
- GI50 [24]: 0.943 µM
- TGI [24]: 2.62 µM
- GI50 [25]: 2.15 µM
- TGI [25]: 5.36 µM
- GI50 [26]: 2.35 µM
- TGI [26]: 7.37 µM
- GI50 [27]: 1.56 µM
- TGI [27]: 4.71 µM
- GI50 [28]: 13.9 µM
- TGI [28]: 34.8 µM
- GI50 [29]: 2.03 µM
- TGI [29]: 6.14 µM
- GI50 [30]: 8.14 µM
- TGI [30]: 24.3 µM
- GI50 [31]: 0.444 µM
- TGI [31]: 1.8 µM
- GI50 [32]: 7.11 µM
- TGI [32]: 31.7 µM
- GI50 [33]: 0.805 µM
- TGI [33]: 2.12 µM
- GI50 [34]: 4.2 µM
- TGI [34]: 18.7 µM
- GI50 [35]: 1.99 µM
- TGI [35]: 4.82 µM
- GI50 [36]: 3.36 µM
- TGI [36]: 12.6 µM
- GI50 [37]: 7.59 µM
- TGI [37]: 21.1 µM
- GI50 [38]: 1.46 µM
- TGI [38]: 4.5 µM
- GI50 [39]: 1.3 µM
- TGI [39]: 2.65 µM
- GI50 [40]: 2.72 µM
- TGI [40]: 10.1 µM
- GI50 [41]: 7.49 µM
- TGI [41]: 20.9 µM
- GI50 [42]: 1.73 µM
- TGI [42]: 3.56 µM
- GI50 [43]: 2.13 µM
- TGI [43]: 5.45 µM
- GI50 [44]: 1.57 µM
- TGI [44]: 3.57 µM
- GI50 [45]: 2.89 µM
- TGI [45]: 9.67 µM
- GI50 [46]: 16.3 µM
- TGI [46]: 30 µM
- GI50 [47]: 2.15 µM
- TGI [47]: 7.13 µM
- GI50 [48]: 12 µM
- TGI [48]: 26.7 µM
- GI50 [49]: 10.5 µM
- TGI [49]: 23.6 µM
- GI50 [50]: 1.23 µM
- TGI [50]: 7.12 µM
- GI50 [51]: 1.01 µM
- TGI [51]: 2.44 µM
- GI50 [52]: 1.92 µM
- TGI [52]: 4.64 µM
- GI50 [53]: 8.29 µM
- TGI [53]: 21.1 µM
- GI50 [54]: 1.9 µM
- TGI [54]: 4.54 µM
- GI50 [55]: 1.64 µM
- TGI [55]: 4.01 µM
- GI50 [56]: 1.34 µM
- TGI [56]: 2.78 µM
